Assay results published in US20060134102A1, “Lymphotoxin beta receptor agents in combination with chemotherapeutic agents” (Biogen Idec MA Inc., priority 2002, published 2006).
Where “and” joins values, the source holds several entries; their conditions need not be identical. Equal entries are not always repeated.

Test system: KM-20L2 human colorectal adenocarcinoma
Experiment: KM-20L2 xenograft model: growth of established KM-20L2 human colorectal tumors in athymic nude mice (tumor volume/weight, % T/C, Fa, Combination Index)
Assay type: in vivo

## huCBE11: humanized anti-LT-β-R agonist antibody (LTβ receptor-activating mAb), described in WO 02/30986
huCBE11 2 mg/kg, Day 9
  Mean Fraction Affected (Fa): 0.103
  Mean Fraction Affected/Fraction Unaffected (Fa/Fu): 0.115
  Mean Tumor Volume: 100.3 cubic mm
  Mean Tumor Volume Decrease: 11.5 cubic mm
huCBE11 2 mg/kg, Day 13
  Mean Fraction Affected (Fa): 0.057
  Mean Fraction Affected/Fraction Unaffected (Fa/Fu): 0.061
  Mean Tumor Volume: 162.7 cubic mm
  Mean Tumor Volume Decrease: 9.9 cubic mm
huCBE11 2 mg/kg, Day 16
  Mean Fraction Affected (Fa): 0.119
  Mean Fraction Affected/Fraction Unaffected (Fa/Fu): 0.135
  Mean Tumor Volume: 233.5 cubic mm
  Mean Tumor Volume Decrease: 31.5 cubic mm
huCBE11 2 mg/kg, Day 20
  Mean Fraction Affected (Fa): 0.342
  Mean Fraction Affected/Fraction Unaffected (Fa/Fu): 0.521
  Mean Tumor Volume: 263.7 cubic mm
  Mean Tumor Volume Decrease: 137.3 cubic mm
huCBE11 2 mg/kg, Day 23
  Mean Fraction Affected/Fraction Unaffected (Fa/Fu): 0.554
  Mean Tumor Volume: 339.2 cubic mm
  Mean Tumor Volume Decrease: 188.0 cubic mm
huCBE11 2 mg/kg, Day 27
  Mean Fraction Affected (Fa): 0.419
  Mean Fraction Affected/Fraction Unaffected (Fa/Fu): 0.720
  Mean Tumor Volume: 388.7 cubic mm
  Mean Tumor Volume Decrease: 279.9 cubic mm
huCBE11 2 mg/kg, Day 30
  Mean Fraction Affected (Fa): 0.449
  Mean Fraction Affected/Fraction Unaffected (Fa/Fu): 0.813
  Mean Tumor Volume: 450.1 cubic mm
  Mean Tumor Volume Decrease: 366.1 cubic mm
huCBE11 2 mg/kg, Day 34
  Mean Fraction Affected (Fa): 0.505
  Mean Fraction Affected/Fraction Unaffected (Fa/Fu): 1.020
  Mean Tumor Volume: 519.9 cubic mm
  Mean Tumor Volume Decrease: 530.4 cubic mm
huCBE11 2 mg/kg, Day 37
  Mean Fraction Affected (Fa): 0.520
  Mean Fraction Affected/Fraction Unaffected (Fa/Fu): 1.082
  Mean Tumor Volume: 580.1 cubic mm
  Mean Tumor Volume Decrease: 627.9 cubic mm
huCBE11 2 mg/kg, Day 41
  Mean Fraction Affected (Fa): 0.567
  Mean Fraction Affected/Fraction Unaffected (Fa/Fu): 1.310
  Mean Tumor Volume: 623.2 cubic mm
  Mean Tumor Volume Decrease: 816.2 cubic mm
huCBE11 2 mg/kg, Day 43
  Mean Fraction Affected (Fa): 0.588
  Mean Fraction Affected/Fraction Unaffected (Fa/Fu): 1.424
  Mean Tumor Volume: 662.7 cubic mm
  Mean Tumor Volume Decrease: 944.0 cubic mm
huCBE11 4 mg/kg and 2 mg/kg, Days 20-55, separate study
  Tumor growth vs vehicle control: significantly decreased
huCBE11 4 mg/kg, Day 9
  Mean Fraction Affected (Fa): −0.125
  Mean Fraction Affected/Fraction Unaffected (Fa/Fu): −0.111
  Mean Tumor Volume: 125.8 cubic mm
  Mean Tumor Volume Decrease: −14.0 cubic mm
huCBE11 4 mg/kg, Day 13
  Mean Fraction Affected (Fa): −0.048
  Mean Fraction Affected/Fraction Unaffected (Fa/Fu): −0.046
  Mean Tumor Volume: 180.9 cubic mm
  Mean Tumor Volume Decrease: −8.3 cubic mm
huCBE11 4 mg/kg, Day 16
  Mean Fraction Affected/Fraction Unaffected (Fa/Fu): 0.070
  Mean Tumor Volume: 247.6 cubic mm
  Mean Tumor Volume Decrease: 17.4 cubic mm
huCBE11 4 mg/kg, Day 20
  Mean Fraction Affected (Fa): 0.307
  Mean Fraction Affected/Fraction Unaffected (Fa/Fu): 0.442
  Mean Tumor Volume: 278.0 cubic mm
  Mean Tumor Volume Decrease: 123.0 cubic mm
huCBE11 4 mg/kg, Day 23
  Mean Fraction Affected (Fa): 0.347
  Mean Fraction Affected/Fraction Unaffected (Fa/Fu): 0.531
  Mean Tumor Volume: 344.3 cubic mm
  Mean Tumor Volume Decrease: 182.9 cubic mm
huCBE11 4 mg/kg, Day 27
  Mean Fraction Affected (Fa): 0.423
  Mean Fraction Affected/Fraction Unaffected (Fa/Fu): 0.733
  Mean Tumor Volume: 385.8 cubic mm
  Mean Tumor Volume Decrease: 282.8 cubic mm
huCBE11 4 mg/kg, Day 30
  Mean Fraction Affected (Fa): 0.412
  Mean Fraction Affected/Fraction Unaffected (Fa/Fu): 0.700
  Mean Tumor Volume: 480.1 cubic mm
  Mean Tumor Volume Decrease: 336.1 cubic mm
huCBE11 4 mg/kg, Day 34
  Mean Fraction Affected (Fa): 0.468
  Mean Fraction Affected/Fraction Unaffected (Fa/Fu): 0.879
  Mean Tumor Volume: 558.9 cubic mm
  Mean Tumor Volume Decrease: 491.4 cubic mm
huCBE11 4 mg/kg, Day 37
  Mean Fraction Affected (Fa): 0.511
  Mean Fraction Affected/Fraction Unaffected (Fa/Fu): 1.044
  Mean Tumor Volume: 591.1 cubic mm
  Mean Tumor Volume Decrease: 616.9 cubic mm
huCBE11 4 mg/kg, Day 41
  Mean Fraction Affected (Fa): 0.512
  Mean Fraction Affected/Fraction Unaffected (Fa/Fu): 1.050
  Mean Tumor Volume: 702.0 cubic mm
  Mean Tumor Volume Decrease: 737.4 cubic mm
huCBE11 4 mg/kg, Day 43
  Mean Fraction Affected (Fa): 0.518
  Mean Fraction Affected/Fraction Unaffected (Fa/Fu): 1.073
  Mean Tumor Volume: 775.1 cubic mm
  Mean Tumor Volume Decrease: 831.6 cubic mm
huCBE11 20 mg/kg Days 16 through 55, 2 mg/kg Days 16 through 55, 0.2 mg/kg Days 20 through 55, separate study
  Inhibition of tumor growth vs vehicle control: significant inhibition of tumor growth
huCBE11 20 mg/kg alone, Day 9
  Mean Fraction Affected (Fa): 0.053
huCBE11 20 mg/kg alone, Day 13, 20 mg/kg
  Mean Fraction Affected (Fa): 0.087 and 0.086
huCBE11 20 mg/kg alone, Day 16, 20 mg/kg
  Mean Fraction Affected (Fa): 0.263 and 0.264
huCBE11 20 mg/kg alone, Day 20
  Mean Fraction Affected (Fa): 0.435
huCBE11 20 mg/kg alone, Day 23
  Mean Fraction Affected (Fa): 0.504
huCBE11 20 mg/kg alone, Day 27
  Mean Fraction Affected (Fa): 0.576
huCBE11 20 mg/kg alone, Day 30
  Mean Fraction Affected (Fa): 0.539
huCBE11 20 mg/kg alone, Day 34
  Mean Fraction Affected (Fa): 0.543
huCBE11 20 mg/kg alone, Day 37
  Mean Fraction Affected (Fa): 0.525
huCBE11 20 mg/kg alone, Day 41
  Mean Fraction Affected (Fa): 0.538
huCBE11 20 mg/kg, Day 27 (lowest observed)
  % T/C: 42.4%
huCBE11, studies of the Camptosar example
  Activity by NCI criteria (% T/C at or below 42): inactive
huCBE11, studies of the gemcitabine example
  Activity by NCI criteria (% T/C of 42 or less): active
huCBE11 dose groups, throughout both studies (Camptosar example)
  % T/C: > 42%
